PubChem BioAssay AID248 (DTP/NCI, 2004)
Where “and” joins values, the source holds several entries; their conditions need not be identical. Equal entries are not always repeated. Inconclusive results and toxic doses are left out. Rule as the data show it: active = T/C of 150% or more; inactive = T/C below 125%.

System: L1210 leukemia ip in BDF1 mice, survival T/C
Assay: NCI In Vivo Anticancer Drug Screen. Data for tumor model L1210 Leukemia (intraperitoneal) in B6D2F1 (BDF1) mice
Settings: endpoint: mean survival time, higher = longer survival
Outline: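 Read-out is survival time, reported as the treated-group measurement over the vehicle-control measurement.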

[1] = dose: 100.0 mg/kg/injection, schedule: Q01DX009 (ip), vehicle: Klucel (hydroxypropylcellulose) (HPC)
[2] = dose: 100.0 mg/kg/injection, schedule: Q01DX001 (ip), vehicle: saline
[3] = dose: 200.0 mg/kg/injection, schedule: Q01DX001 (ip), vehicle: saline
[4] = dose: 400.0 mg/kg/injection, schedule: Q01DX001 (ip), vehicle: saline
[5] = dose: 50.0 mg/kg/injection, schedule: Q04DX002 (ip), vehicle: Klucel (hydroxypropylcellulose) (HPC)
[6] = dose: 100.0 mg/kg/injection, schedule: Q04DX002 (ip), vehicle: Klucel (hydroxypropylcellulose) (HPC)
[7] = dose: 200.0 mg/kg/injection, schedule: Q04DX002 (ip), vehicle: Klucel (hydroxypropylcellulose) (HPC)
[8] = dose: 100.0 mg/kg/injection, schedule: Q01DX001 (ip), vehicle: carboxymethylcellulose (CMC)
[9] = dose: 200.0 mg/kg/injection, schedule: Q01DX001 (ip), vehicle: carboxymethylcellulose (CMC)
[10] = dose: 200.0 mg/kg/injection, schedule: Q01DX009 (ip), vehicle: Klucel (hydroxypropylcellulose) (HPC)
[11] = dose: 400.0 mg/kg/injection, schedule: Q01DX009 (ip), vehicle: Klucel (hydroxypropylcellulose) (HPC)

Measured: T/C

COc1cc(OC(=O)Nc2ccc([N+](=O)[O-])cc2OC)ccc1C=O
inactive: dose: 25.0 mg/kg/injection, schedule: Q01DX009 (ip), vehicle: Klucel (hydroxypropylcellulose) (HPC) 92 % of control | dose: 50.0 mg/kg/injection, schedule: Q01DX009 (ip), vehicle: Klucel (hydroxypropylcellulose) (HPC) 92 % of control | [1] 105 % of control and 88 % of control

Cc1ncc(CO)c(Nc2ccccc2)n1
inactive: dose: 100.0 mg/kg/injection, schedule: Q01DX001 (ip), vehicle: Klucel (hydroxypropylcellulose) (HPC) 90 % of control | dose: 200.0 mg/kg/injection, schedule: Q01DX001 (ip), vehicle: Klucel (hydroxypropylcellulose) (HPC) 108 % of control | dose: 400.0 mg/kg/injection, schedule: Q01DX001 (ip), vehicle: Klucel (hydroxypropylcellulose) (HPC) 96 % of control

C/C(=C\CN1C(=O)CN(C)C1=O)CCC1OC1(C)C (configuration not stated)
inactive: [2] 115 % of control | dose: 100.0 mg/kg/injection, schedule: Q04DX003 (ip), vehicle: water 100 % of control | [3] 111 % of control | dose: 200.0 mg/kg/injection, schedule: Q04DX003 (ip), vehicle: water 98 % of control | [4] 114 % of control | dose: 400.0 mg/kg/injection, schedule: Q04DX003 (ip), vehicle: water 104 % of control

Cc1ccc(C(=O)C[n+]2cccc3ccccc32)c(C)c1
inactive: dose: 25.0 mg/kg/injection, schedule: Q04DX002 (ip), vehicle: saline with Tween-80 93 % of control

N#CCC[N+]1([O-])CCCCC1C(=O)O (configuration not stated)
inactive: [2] 98 % of control | [3] 98 % of control

S=C(NNC(=S)Nc1ccc(Cl)cc1)NNc1ccccc1
inactive: dose: 100.0 mg/kg/injection, schedule: Q04DX003 (ip), vehicle: acetone 97 % of control | dose: 200.0 mg/kg/injection, schedule: Q04DX003 (ip), vehicle: acetone 100 % of control

O=Cc1c(Cl)[nH]c2ccccc12
inactive: [5] 90 % of control | [6] 93 % of control | [7] 101 % of control

CCOP(=O)(Nc1ccc2c(c1)Cc1c-2cc(Cl)c(NC(C)=O)c1Cl)OCC
inactive: dose: 50.0 mg/kg/injection, schedule: Q01DX001 (ip), vehicle: carboxymethylcellulose (CMC) 97 % of control | [8] 92 % of control | [9] 94 % of control | dose: 400.0 mg/kg/injection, schedule: Q01DX001 (ip), vehicle: carboxymethylcellulose (CMC) 92 % of control

O=CC(O)C(O)C(OC1OC(CO)C(OC2OC(CO)C(O)C(O)C2O)C(O)C1O)C(O)CO (configuration not stated)
inactive: dose: 100.0 mg/kg/injection, schedule: Q04DX003 (ip), vehicle: saline 93 % of control | dose: 200.0 mg/kg/injection, schedule: Q04DX003 (ip), vehicle: saline 93 % of control | dose: 400.0 mg/kg/injection, schedule: Q04DX003 (ip), vehicle: saline 94 % of control

NC(=O)c1ccc[n+](CCO)c1
inactive: dose: 3.1 mg/kg/injection, schedule: Q01DX009 (ip), vehicle: saline 102 % of control | dose: 6.25 mg/kg/injection, schedule: Q01DX009 (ip), vehicle: saline 104 % of control | dose: 12.5 mg/kg/injection, schedule: Q01DX009 (ip), vehicle: saline 98 % of control | dose: 25.0 mg/kg/injection, schedule: Q01DX009 (ip), vehicle: saline 104 % of control | dose: 50.0 mg/kg/injection, schedule: Q01DX009 (ip), vehicle: saline 110 % of control | dose: 100.0 mg/kg/injection, schedule: Q01DX009 (ip), vehicle: saline 100 % of control | dose: 115.0 mg/kg/injection, schedule: Q01DX Z (ip), vehicle: saline 100 % of control | dose: 150.0 mg/kg/injection, schedule: Q04DX003 (ip), vehicle: saline 100 % of control | dose: 175.0 mg/kg/injection, schedule: Q01DX Z (ip), vehicle: saline 94 % of control | dose: 225.0 mg/kg/injection, schedule: Q04DX003 (ip), vehicle: saline 104 % of control | dose: 265.0 mg/kg/injection, schedule: Q01DX Z (ip), vehicle: saline 105 % of control | dose: 335.0 mg/kg/injection, schedule: Q04DX003 (ip), vehicle: saline 100 % of control | dose: 400.0 mg/kg/injection, schedule: Q01DX Z (ip), vehicle: saline 100 % of control

Nc1ccc2c(c1)C(=NO)c1cc(N)ccc1-2
inactive: [8] 106 % of control | [9] 108 % of control

O=c1ccnc(/C=C/c2ccc(Cl)cc2)[nH]1
inactive: dose: 200.0 mg/kg/injection, schedule: Q01DX009 (ip), vehicle: saline with Tween-80 87 % of control | dose: 400.0 mg/kg/injection, schedule: Q01DX009 (ip), vehicle: saline with Tween-80 96 % of control

CN(N)c1nc2c(N)ncnc2n1C1OC(CO)C(O)C1O (configuration not stated)
inactive: dose: 12.5 mg/kg/injection, schedule: Q01DX005 (ip), vehicle: saline 97 % of control | dose: 25.0 mg/kg/injection, schedule: Q01DX005 (ip), vehicle: saline 108 % of control | dose: 50.0 mg/kg/injection, schedule: Q01DX005 (ip), vehicle: saline 100 % of control

CC(C)(C)C(=O)C(Br)Br
inactive: dose: 25.0 mg/kg/injection, schedule: Q04DX002 (ip), vehicle: Klucel (hydroxypropylcellulose) (HPC) 101 % of control | [5] 96 % of control | [6] 97 % of control and 101 % of control

CCOP(=O)(Cc1c(Cl)c(Cl)c(CP(=O)(OCC)OCC)c(Cl)c1Cl)OCC
inactive: [2] 107 % of control | [3] 98 % of control | [4] 98 % of control

COc1ccc(NC(=O)Oc2ccc3ccccc3c2)c(OC)c1
inactive: [6] 97 % of control | [7] 111 % of control | dose: 400.0 mg/kg/injection, schedule: Q04DX002 (ip), vehicle: Klucel (hydroxypropylcellulose) (HPC) 104 % of control

CCCCCCCCOC(=O)c1ccccc1C(=O)OCCCCCCCC
inactive: [1] 96 % of control | dose: 100.0 mg/kg/injection, schedule: Q04DX003 (ip), vehicle: Klucel (hydroxypropylcellulose) (HPC) 97 % of control | [10] 94 % of control | dose: 200.0 mg/kg/injection, schedule: Q04DX003 (ip), vehicle: Klucel (hydroxypropylcellulose) (HPC) 93 % of control | [11] 96 % of control | dose: 400.0 mg/kg/injection, schedule: Q04DX003 (ip), vehicle: Klucel (hydroxypropylcellulose) (HPC) 92 % of control

O=C(Nc1cccc(C(F)(F)F)c1)N(Cc1ccccc1)Cc1ccccc1
inactive: dose: 100.0 mg/kg/injection, schedule: Q01DX009 (ip), vehicle: gum acacia 108 % of control | dose: 200.0 mg/kg/injection, schedule: Q01DX009 (ip), vehicle: gum acacia 106 % of control | dose: 400.0 mg/kg/injection, schedule: Q01DX009 (ip), vehicle: gum acacia 94 % of control

CCOC(=O)c1ccc(NC(=O)Oc2ccc3c(C)cc(=O)oc3c2)cc1
inactive: [1] 101 % of control | [10] 100 % of control | [11] 89 % of control

CCOC(=O)/C(C#N)=C(\C)CC(C)C
inactive: dose: 5.0 mg/kg/injection, schedule: Q01DX001 (ip), vehicle: saline 101 % of control | dose: 10.0 mg/kg/injection, schedule: Q01DX001 (ip), vehicle: saline 95 % of control | dose: 20.0 mg/kg/injection, schedule: Q01DX001 (ip), vehicle: saline 95 % of control | dose: 40.0 mg/kg/injection, schedule: Q01DX001 (ip), vehicle: saline 98 % of control | dose: 80.0 mg/kg/injection, schedule: Q01DX001 (ip), vehicle: saline 101 % of control | [2] 98 % of control

CCSCc1cnc(N)nc1-c1ccccc1
inactive: dose: 100.0 mg/kg/injection, schedule: Q04DX003 (ip), vehicle: saline with Tween-80 97 % of control | dose: 200.0 mg/kg/injection, schedule: Q04DX003 (ip), vehicle: saline with Tween-80 94 % of control | dose: 400.0 mg/kg/injection, schedule: Q04DX003 (ip), vehicle: saline with Tween-80 86 % of control
